Measurements published in ChEMBL document CHEMBL1201862, “PubChem BioAssay data set” (2004).
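Each compound was tested at five concentrations against cells in 96-well plates for 48 hours. At the GI50, growth is halved.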 Activity calls are given as the source filed them. No stated cut-off is given here; in the data, active = GI50 up to about 1.1 µM and inactive = higher.

Key:
Assay in all cases: growth of human tumour cells (NCI), 48 h
A498 = tested on: A498
A549 = tested on: A549
CCRF-CEM = tested on: CCRF-CEM
DMS-114 = tested on: DMS-114
EKVX = tested on: EKVX
HCT-116 = tested on: HCT-116
HL-60 = tested on: HL-60
HOP-92 = tested on: HOP-92
HT-29 = tested on: HT-29
IGROV-1 = tested on: IGROV-1
K562 = tested on: K562
NCI-H23 = tested on: NCI-H23
NCI-H522 = tested on: NCI-H522
RPMI-8226 = tested on: RPMI-8226
RXF 393 = tested on: RXF 393
TK-10 = tested on: TK-10
UACC-62 = tested on: UACC-62
DU-145 = tested on: DU-145
MDA-N = tested on: MDA-N
MOLT-4 = tested on: MOLT-4

Measured: GI50

COC(=O)C(Cc1c[nH]c2ccccc12)NC(=O)C(Cc1c[nH]c2ccccc12)NC(=O)OCc1ccccc1 (stereo not given)
inactive: A498 72.8 µM | A549 17.8 µM | CCRF-CEM 21.7 µM | DMS-114 19.4 µM | EKVX 18.6 µM | HCT-116 17.9 µM | HL-60 20.8 µM | HOP-92 20 µM | HT-29 20 µM | IGROV-1 19.3 µM | K562 23.6 µM | NCI-H23 17.3 µM | NCI-H522 16.3 µM | RPMI-8226 11.7 µM | RXF 393 19.5 µM | TK-10 22.8 µM | UACC-62 19.3 µM

CCOC(=O)C1N(S(=O)(=O)c2ccc(C)cc2)CCC12c1ccccc1N(C(C)=O)C2c1ccc(OC)c(OC)c1 (stereo not given)
inactive: A498 > 100 µM | A549 > 100 µM | CCRF-CEM > 100 µM | DMS-114 > 100 µM | EKVX > 100 µM | HCT-116 47.4 µM | HL-60 48.1 µM | HOP-92 47.8 µM | HT-29 > 100 µM | IGROV-1 > 100 µM | K562 80.7 µM | NCI-H23 > 100 µM | NCI-H522 > 100 µM | RPMI-8226 65.5 µM | RXF 393 > 100 µM | TK-10 > 100 µM | UACC-62 > 100 µM

CCCCCCCCCCCCCCCCCCNC(=O)OCC(CNS(=O)(=O)CCC[n+]1cccc2ccccc21)COC (stereo not given)
inactive: A498 10.9 µM | A549 1.47 µM | DMS-114 1.18 µM | DU-145 12.4 µM | EKVX 17.7 µM | HCT-116 1.35 µM | HL-60 1.23 µM | IGROV-1 1.17 µM | K562 3.55 µM | MDA-N 1.81 µM | NCI-H23 1.16 µM | RPMI-8226 1.37 µM | RXF 393 4.99 µM | TK-10 3.4 µM | UACC-62 1.96 µM
active: CCRF-CEM 1.06 µM | HOP-92 0.838 µM | HT-29 0.565 µM | MOLT-4 1.11 µM | NCI-H522 1.02 µM

COc1ccc2c(C(=O)O)cc3ccccc3c2c1OC
inactive: A498 18.8 µM | A549 30 µM | CCRF-CEM 24.8 µM | DMS-114 17.7 µM | EKVX 20.1 µM | HCT-116 18.6 µM | HL-60 27.1 µM | HOP-92 21.9 µM | HT-29 21.6 µM | K562 24.2 µM | MOLT-4 32.9 µM | NCI-H23 22.2 µM | NCI-H522 13.8 µM | RPMI-8226 31 µM | RXF 393 15.2 µM | TK-10 19.1 µM | UACC-62 15.2 µM

CN/N=C(\C)CC(=O)Nc1cccc(Cl)c1C
inactive: A498 > 100 µM | A549 > 100 µM | CCRF-CEM 96.6 µM | DMS-114 > 100 µM | EKVX > 100 µM | HCT-116 > 100 µM | HL-60 > 100 µM | HOP-92 > 100 µM | HT-29 > 100 µM | IGROV-1 > 100 µM | K562 > 100 µM | MOLT-4 > 100 µM | NCI-H23 > 100 µM | NCI-H522 38.6 µM | RPMI-8226 > 100 µM | RXF 393 > 100 µM | TK-10 > 100 µM | UACC-62 > 100 µM

CC(=O)/C=C/c1ccc(C2CC(C)=Nc3c(ccc4c3C(=O)c3ccccc3C4=O)N2)cc1 (stereo not given)
active: HL-60 0.944 µM
inactive: A498 33.3 µM | A549 > 40.1 µM | CCRF-CEM 1.28 µM | DMS-114 34.9 µM | EKVX 27.3 µM | HCT-116 33 µM | HOP-92 28.2 µM | HT-29 > 100 µM | IGROV-1 9.12 µM | K562 > 57.5 µM | MOLT-4 > 100 µM | NCI-H23 > 67.3 µM | NCI-H522 > 20 µM | RPMI-8226 > 52.4 µM | RXF 393 92 µM | TK-10 8.89 µM | UACC-62 59.7 µM

COc1cc(O)c2c(c1)C(=O)C=C(Cl)C2=O
inactive: A498 > 100 µM | A549 > 100 µM | CCRF-CEM > 100 µM | DMS-114 > 100 µM | EKVX > 100 µM | HCT-116 66.4 µM | HL-60 > 100 µM | HOP-92 > 100 µM | HT-29 > 100 µM | IGROV-1 > 100 µM | K562 > 100 µM | MOLT-4 > 100 µM | NCI-H23 > 100 µM | NCI-H522 > 100 µM | RPMI-8226 > 100 µM | RXF 393 > 100 µM | TK-10 > 100 µM | UACC-62 > 100 µM

Cc1ccccc1NC(=O)C(=O)c1c(O)c2ccc(O)cc2oc1=O
inactive: A498 > 100 µM | A549 > 100 µM | CCRF-CEM > 100 µM | DMS-114 > 100 µM | HCT-116 > 100 µM | HL-60 > 100 µM | HOP-92 > 100 µM | HT-29 > 100 µM | IGROV-1 > 100 µM | K562 > 100 µM | MOLT-4 > 100 µM | NCI-H23 > 100 µM | NCI-H522 > 100 µM | RPMI-8226 > 100 µM | RXF 393 > 100 µM | TK-10 > 100 µM | UACC-62 > 100 µM

C=CC1=CC(C)C[C@]1(O)C(=O)OC (stereo not given in full)
active: A498 < 0.01 µM | A549 < 0.01 µM | CCRF-CEM < 0.01 µM | DMS-114 < 0.01 µM | EKVX < 0.01 µM | HCT-116 < 0.01 µM | HL-60 < 0.01 µM | HOP-92 < 0.01 µM | HT-29 < 0.01 µM | IGROV-1 < 0.01 µM | K562 < 0.01 µM | MOLT-4 < 0.01 µM | NCI-H23 < 0.01 µM | RPMI-8226 < 0.01 µM | RXF 393 < 0.01 µM | TK-10 < 0.01 µM | UACC-62 < 0.01 µM
inactive: NCI-H522 > 100 µM
